# Reference: patent US8809386B2, “Use of dynamin ring stabilizers” (Children's Medical Research Institute, priority 2009, dated 2014)
# Tests used:
# [1] = target: F-actin; test: Actin co-sedimentation assay, dynamin-F-actin binding (Scatchard plot); conditions: 5 μM F-actin, centrifugation at 100,000×g, FIG. 14
# Method: Increasing concentrations of dynamin (free) were added to 5 μM of F-actin. After centrifugation at 100,000×g proteins were separated on SDS-PAGE and bands were analyzed using densitometry.
# To determine whether dynamin affects the actin cytoskeleton, the question of whether dynamin might directly bind filamentous actin (F-actin) was tested. In particular, an actin co-sedimentation assay was performed in which F-actin sediments under high-speed centrifugation. If dynamin interacts with F-actin it would be expected to co-sediment, and thus be present in the pellet fraction. In the presence of F-actin, but not in its absence, the majority of dynamin was found in the pellet (FIG. 12, lanes 2 and 14). […] The Kd of dynamin for actin was approximately 0.4 μM, which is similar to the affinities of other actin binding proteins such as α-actinin 4 for actin (Weins et al. 2005).
# Next, the actin binding site was mapped to a region between amino acids 399 and 444 amino acids of dynamin II (dyn2) (FIG. 13). As predicted for an actin binding domain (Van et al. 1996), this region contains several positively charged amino acids conserved in all dynamin gene products from yeast to mammals. It is also alternatively spliced within different mammalian dynamin isoforms (called variant a and b in dynamins I and II) (see FIG. 13, SEQ ID No. 1-4). Site-directed mutagenesis was performed on conserved, charged residues within this actin binding domain to generate the putative ‘loss of function’ mutants, dynK/E (SEQ ID No. 9) and dynK/A (SEQ ID No. 10), and a putative ‘gain of function’ mutant, dynE/K (SEQ ID No. 11) (FIG. 13). […] All three mutant proteins had wild-type kinetic properties with respect to the basal and stimulated rate of GTP hydrolysis, indicating proper folding.
# [2] = target: T1, full length dynamin I (Ovis aries, UniProt A0ACI6NZN1); test: Basal dynamin GTPase activity in the absence of PS liposomes or other template (ring stabilizer activity); assay type: biochemical, sheep; conditions: for stimulation of basal dynamin GTPase activity in the presence of Tween-80: dynI 200 nM, Tween-80 0.06%, Bis-T series 10 μM, all other compounds 30 μM, FIG. 11B
# T1 sequence (A0ACI6NZN1 1-864): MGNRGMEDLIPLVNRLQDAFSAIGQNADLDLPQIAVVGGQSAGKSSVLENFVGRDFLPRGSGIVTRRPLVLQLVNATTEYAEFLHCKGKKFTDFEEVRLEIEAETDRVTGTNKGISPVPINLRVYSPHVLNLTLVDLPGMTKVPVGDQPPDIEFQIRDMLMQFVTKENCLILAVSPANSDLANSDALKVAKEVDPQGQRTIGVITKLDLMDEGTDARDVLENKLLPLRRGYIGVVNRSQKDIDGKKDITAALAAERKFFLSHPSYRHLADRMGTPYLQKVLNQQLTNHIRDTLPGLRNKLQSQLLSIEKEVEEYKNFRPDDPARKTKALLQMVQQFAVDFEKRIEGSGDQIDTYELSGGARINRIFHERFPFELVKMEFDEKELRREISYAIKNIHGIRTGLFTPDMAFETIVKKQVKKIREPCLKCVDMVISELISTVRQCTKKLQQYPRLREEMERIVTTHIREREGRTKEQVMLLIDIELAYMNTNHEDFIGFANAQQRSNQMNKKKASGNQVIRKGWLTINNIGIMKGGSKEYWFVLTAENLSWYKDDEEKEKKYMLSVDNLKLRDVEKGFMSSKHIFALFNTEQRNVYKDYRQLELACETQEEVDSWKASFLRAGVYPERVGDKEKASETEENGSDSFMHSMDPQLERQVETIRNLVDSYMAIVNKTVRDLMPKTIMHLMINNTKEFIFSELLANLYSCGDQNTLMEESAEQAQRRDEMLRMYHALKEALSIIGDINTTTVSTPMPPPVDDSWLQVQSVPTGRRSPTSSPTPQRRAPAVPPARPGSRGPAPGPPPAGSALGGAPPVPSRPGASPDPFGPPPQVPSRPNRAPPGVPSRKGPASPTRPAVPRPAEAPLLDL
# Method: The compounds were present at the indicated concentrations and the concentration causing half-maximal stimulation is shown as the EC50.
# Dynamin I (50 nM) GTPase stimulation was performed in the absence of the detergent Tween-80 (and in the absence of any known activators such as PS liposomes, nanotubes or microtubules). […] The GTPase activity of dynamin I (dynI; 200 nM) was measured in the absence of lipid activators (and in the presence of standard Tween-80 at 0.06%).
# A compound (whether a dynamin inhibitor or not) can be identified as a dynamin ring stabilizer by assaying for its capacity to promote accumulation of dynamin rings and/or to inhibit disassembly of dynamin rings. […] GTPase activity of dynamin or dynamin rings can be determined by any conventionally known method (e.g., see Quan and Robinson. 2005). Such conditions include: (a) the absence of a helix assembly template such as liposomes, microtubules or lipid nanotubes, and (b) higher concentrations of dynamin than normally required for detecting template stimulated activity, typically 50-500 nM dynamin instead of 1-20 nM. Thus, ring stabilizer activity can be identified by the ability to stimulate the GTPase activity of full length dynamin in the absence of other stimulatory factors (such as PS liposomes, microtubules or nanotubes). Additional defining characteristics are available but are not essential if the first condition has been met. One such additional characteristic of ring stabilizer activity is that the stimulated activity occurs after a lag phase of a few minutes, rather than being an immediate activation in vitro. […] Such conditions typically mean utilising 50-200 nM dynamin in the absence of a template as distinct from higher concentrations where self-assembly is known to occur without the addition of a dynamin ring stabilizer.
# Next, a time course experiment of Bis-T-23 stimulation of dynamin GTPase (FIG. 3) was conducted. […] The lag phase is thought to indicate the time required for dynamin to assemble as rings.
# [3] = tested on: truncated dynamin I construct known as GG2; test: Basal GTPase activity of assembly-incompetent dynamin construct GG2; assay type: biochemical; conditions: FIG. 5
# From the text: FIG. 5 is a graph showing the basal GTPase activity of the truncated dynamin I construct known as GG2, containing only the GTPase domain linked to a small part of the GED domain (Chappie et al 2009). Unlike full length dynamin this construct is known to be unable to self-assemble or to form rings. Bis-T-22 and -23 and imminodyn-22 have no effect on the basal activity of this assembly-incompetent construct.
# To verify that ring stabilizers require dynamin oligomerisation, a recombinant form of dynamin, called GG-2, which is dimeric yet is unable to self-associate into higher order oligomers (Chappie et al 2009) was tested. Ring stabilizers are unable to stimulate the basal activity of such constructs (FIG. 5).
# [4] = tested on: rat brain synaptosomes; test: EM analysis of endocytic pits in KCl-depolarised rat brain synaptosomes; assay type: cell-based; conditions: 30 min (100 μM), depolarised with KCl, FIG. 10B
# From the text: When vesicles are endocytosed via the clathrin-dependent pathway, they are well known to be internalised as omega shaped figures close to the plasma membrane with partially constricted and short necks. These can be detected by transmission electron microscopy (EM) at a low frequency. […] In contrast to these observations, a dynamin ring stabilizer causes accumulation of clathrin coated pits in cells with two distinctive features: the vesicle necks are highly elongated and are encircled by electron dense rings. […] No rings or trapped vesicles were detected when the synaptosomes were unstimulated (FIG. 10B top). This mimics the in vitro observations on purified dynamin I described earlier which forms single rings (FIG. 9).
# [5] = tested on: Human lymphoblasts (which express dynamin II); test: EM analysis of clathrin coated pits in human lymphoblasts; assay type: cell-based; conditions: 30 min (Bis-T-22 100 μM), FIG. 10A
# From the text: When vesicles are endocytosed via the clathrin-dependent pathway, they are well known to be internalised as omega shaped figures close to the plasma membrane with partially constricted and short necks. These can be detected by transmission electron microscopy (EM) at a low frequency.
# [6] = tested on: dynamin I; test: Dynamin self-assembly assay, high speed centrifugation at decreasing NaCl; assay type: biochemical; conditions: dynamin 520 nM
# Method: This dynamin self-assembly assay was performed with native dynamin ([…]) using the Hepes column buffer described above in Example 1.1, (with the addition of 1% DMSO as described above). Bis-T effects were measured by pre-incubating the dynamin with the indicated Bis-T concentrations for 10 min at room temperature (22° C.). NaCl concentrations were varied from a stock in 200 mM NaCl. After the incubation the tubes were transferred to a TLA120.2 rotor (Beckman) and centrifuged in a tabletop ultracentrifuge (Optima TLX, Beckman) at 100,000 g for 20 min, and the supernatants (S) and pellets (P) were collected, precipitated with trichloracetic acid, solubilised in SDS sample buffer and separated on SDS gels.
# A block in ring disassembly should be manifested as an accumulation of rings in vitro. Dynamin self-assembles into rings in the absence of any cofactors when the buffer ionic strength is decreased (Song et al. 2004). To determine whether Bis-T compounds regulate dynamin-dynamin interactions a well-established method of high speed centrifugation in decreasing amounts of NaCl to collect rings in the pellet (Warnock et al. 1996) was used. Higher concentrations of dynamin (520 nM) and dynamin was visualized by Coomassie staining on SDS gels (FIG. 6). As reported by others, dynamin is in the supernatant at ≧40 mM NaCl, but self-assembled at ≦20 mM NaCl and is found in the pellet. […]
# [7] = target: T2, full length dynamin I (UniProt Q05193); test: Basal dynamin GTPase activity in the absence of PS liposomes or other template (ring stabilizer activity); assay type: biochemical, sheep; conditions: 0.2 μM dyn1, 7 μM compound, 10 μM Gsn-F-actin complexes, FIG. 18
# T2 construct: rows headed: basal rate of GTP hydrolysis of dynamin
# T2 sequence (Q05193 1-864): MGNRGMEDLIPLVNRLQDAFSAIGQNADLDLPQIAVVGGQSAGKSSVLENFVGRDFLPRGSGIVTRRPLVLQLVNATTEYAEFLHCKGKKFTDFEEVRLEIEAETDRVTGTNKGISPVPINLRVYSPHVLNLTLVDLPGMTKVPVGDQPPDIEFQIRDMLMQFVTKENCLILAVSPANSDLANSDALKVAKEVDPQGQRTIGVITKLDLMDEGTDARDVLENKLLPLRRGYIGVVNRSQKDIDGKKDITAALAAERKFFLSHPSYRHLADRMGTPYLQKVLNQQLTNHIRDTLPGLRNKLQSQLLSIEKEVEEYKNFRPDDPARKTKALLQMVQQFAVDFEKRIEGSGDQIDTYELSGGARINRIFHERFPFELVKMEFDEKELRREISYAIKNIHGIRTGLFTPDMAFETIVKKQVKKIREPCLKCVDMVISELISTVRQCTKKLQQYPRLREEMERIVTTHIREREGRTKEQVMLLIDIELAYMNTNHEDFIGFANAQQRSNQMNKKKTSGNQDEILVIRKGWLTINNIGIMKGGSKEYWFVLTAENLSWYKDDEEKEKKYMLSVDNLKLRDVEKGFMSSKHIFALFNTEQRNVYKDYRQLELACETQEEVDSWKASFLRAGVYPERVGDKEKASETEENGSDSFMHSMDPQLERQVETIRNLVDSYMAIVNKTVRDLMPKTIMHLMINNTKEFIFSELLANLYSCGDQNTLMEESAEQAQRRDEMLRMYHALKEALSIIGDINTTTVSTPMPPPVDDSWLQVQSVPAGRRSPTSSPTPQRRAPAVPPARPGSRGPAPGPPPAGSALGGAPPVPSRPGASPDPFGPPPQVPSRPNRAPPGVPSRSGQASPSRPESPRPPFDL
molecule,measurement,setting,value
dynK/E: ‘loss of function’ dynamin mutant in the actin binding domain (SEQ ID No. 9) (RTGLFTPDLAFEAIVEEQVVELEEPCLECVDLVIQELISTVRQCTS; listed as Mus musculus),Kd,[1],1.7 µM
dynK/A: ‘loss of function’ dynamin mutant in the actin binding domain (SEQ ID No. 10) (RTGLFTPDLAFEAIVAAQVVALAEPCLACVDLVIQELISTVRQCTS; listed as Mus musculus),Kd,[1],2.8 µM
O=C(N/N=C/c1cc(O)c(O)cc1O)c1cc2ccccc2cc1O [Dyngo-4a],stimulation of basal dynamin GTPase activity in the presence of Tween-80,[2],effective
N=c1oc2c(O)cccc2cc1C(=O)NCCCNC(=O)c1cc2cccc(O)c2oc1=N [Iminodyn 20],ring stabilizer activity,"[2]; absence of PS, Table 2",no ring stabilizer activity
dynE/K: ‘gain of function’ dynamin mutant in the actin binding domain (SEQ ID No. 11) (RTGLFTPDLAFEAIVKKQVVKLKKPCLKCVDLVIQKLISTVRQCTS; listed as Mus musculus),Kd,[1],0.03 µM
N=c1oc2c(O)c(O)ccc2cc1C(=O)NCCCNC(=O)c1cc2ccc(O)c(O)c2oc1=N [Iminodyn 22],effect on basal GTPase activity of GG2,[3],no effect
"O=C(N/N=C/c1ccc(O)c(O)c1)c1cc2ccccc2cc1O [Dynasore, 3-hydroxynaphthalene-2-carboxylic acid (3,4-dihydroxybenzylidene) hydrazide, reference compound]",stimulation of basal dynamin GTPase activity in the absence of Tween-80,"[2]; Dynamin I 50 nM, no Tween-80, no activators, FIG. 11A",stimulated basal dynamin GTPase activity to similar extents as Bis-T-23
same,stimulation of basal dynamin GTPase activity in the presence of Tween-80,[2],failed to stimulate basal GTPase activity
"N#C/C(=C\c1ccc(O)c(O)c1)C(=O)NCCCNC(=O)/C(C#N)=C/c1ccc(O)c(O)c1 [Bis-T-22, 2-cyano-N-{3-[2-cyano-3-(3,4-dihydroxyphenyl)-acryloylamino]-propyl}-3-(3,4-dihydroxyphenyl)-acrylamide]",trapped endocytic pits by EM,[4],trapped endocytic pits were detected that were encircled by a single electron dense ring
same,clathrin coated pits by EM,[5],massive accumulation in all cells of clathrin coated pits with highly elongated necks
same,dynamin ring assembly (dynamin in pellet),"[6]; 100 μM, intermediate salt concentrations",increased ring assembly
same,dynamin ring assembly (dynamin in pellet),"[6]; 300 μM, fixed 40 mM NaCl",promoted all dynamin to form rings
same,basal rate of GTP hydrolysis of dynamin,[7],stimulates dynamin's basal rate of GTP hydrolysis
same,effect on basal GTPase activity of GG2,[3],no effect
